Drawing on patent US7282513B2, “Heteroaryl substituted spirocyclic sulfamides for inhibition of gamma secretase” (Merck Sharp & Dohme Limited, priority 2002, dated 2007), this text covers melting point for one compound.

The structures appear in SMILES notation.

One may read the melting point as the temperature, or range, at which the solid turns liquid.

As for `Cn1nc(-c2ccc(F)cc2)cc1-c1ccc2c(c1)C[C@H]1CC[C@@H](C2)[C@]12CN(CC(F)(F)F)S(=O)(=O)N2` (single isomer, unassigned) [Example 15], the melting point came to 185 °C.
